Reference: patent publication US6548270B1, “DNA encoding human acid-sensing ion channel BNaC4 (ASIC4)” (Ortho-McNeil Pharmaceutical, Inc., priority 2000, dated 2003)

Key:
[1] = target: T1, human BNaC4 (Homo sapiens, UniProt Q96FT7); test: pH 5.5-induced whole cell current in Xenopus oocytes injected with human BNaC4 cRNA (two-electrode voltage clamp); assay type: cell-based; conditions: 200 uM amiloride, bath application; oocytes injected with hBNaC4 cRNA; n=3
T1 sequence (Q96FT7 1-539): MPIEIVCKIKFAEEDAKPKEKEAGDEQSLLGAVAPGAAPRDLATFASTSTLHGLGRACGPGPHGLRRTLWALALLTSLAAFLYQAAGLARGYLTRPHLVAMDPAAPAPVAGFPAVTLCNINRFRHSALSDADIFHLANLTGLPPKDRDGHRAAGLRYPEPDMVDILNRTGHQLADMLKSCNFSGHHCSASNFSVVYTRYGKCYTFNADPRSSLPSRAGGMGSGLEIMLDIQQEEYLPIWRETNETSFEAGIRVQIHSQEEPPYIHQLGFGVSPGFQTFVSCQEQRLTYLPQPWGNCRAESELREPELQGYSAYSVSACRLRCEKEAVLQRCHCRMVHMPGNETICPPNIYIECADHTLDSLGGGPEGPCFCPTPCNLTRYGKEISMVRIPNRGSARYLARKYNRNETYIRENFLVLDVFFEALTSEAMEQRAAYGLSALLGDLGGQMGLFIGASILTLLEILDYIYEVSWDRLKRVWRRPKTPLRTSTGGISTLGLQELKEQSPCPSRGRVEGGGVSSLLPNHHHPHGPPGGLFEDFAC
Procedure: Xenopus laevis oocytes were prepared and injected using standard methods previously described and known in the art (Fraser et al., 1993). Ovarian lobes from adult female Xenopus laevis (Nasco, Fort Atkinson, Wis.) were teased apart, rinsed several times in nominally Ca-free saline containing: 82.5 mM NaCl, 2.5 mM KCl, 1 mM MgCl2, 5 mM HEPES, adjusted to pH 7.0 with NaOH (OR-2), and gently shaken in OR-2 containing 0.2% collagenase Type 1 (ICN Biomedicals, Aurora, Ohio) for 2-5 hours. When approximately 50% of the follicular layers were removed, Stage V and VI oocytes were selected and rinsed in media consisting of 75% OR-2 and 25% ND-96. […]
Oocytes were injected with 50 nl of the human BNaC4 RNA (0.002-5 ng). […] Whole cell agonist (protons)-induced currents were measured 1-6 days after injection with a conventional two-electrode voltage clamp (GeneClamp50O, Axon Instruments, Foster City, Calif.) using standard methods previously described and known in the art (Dascal, Nathan (1987) The use of Xenopus oocytes for the study of ion channels. CRC Critical reviews in Biochemistry 22:317-387). […]
Functional expression of human BNaC4 in Xenopus oocytes is shown: activation by pH 5.5. […] The oocyte was recorded 3 days after injection of 2 ng hBNaC CRNA. […] The BNaC4 oocytes tested produced currents of at least +60 nA (measured at +80 mV at the end of a voltage ramp protocol) (range +60 to +1240 nA). […]

[2] = target: T2, hASIC3 (Homo sapiens, UniProt Q9UHC3); conditions: 100 μM amiloride, Seguela and Babinski, 1999; cited from earlier work
T2 sequence (Q9UHC3 1-531): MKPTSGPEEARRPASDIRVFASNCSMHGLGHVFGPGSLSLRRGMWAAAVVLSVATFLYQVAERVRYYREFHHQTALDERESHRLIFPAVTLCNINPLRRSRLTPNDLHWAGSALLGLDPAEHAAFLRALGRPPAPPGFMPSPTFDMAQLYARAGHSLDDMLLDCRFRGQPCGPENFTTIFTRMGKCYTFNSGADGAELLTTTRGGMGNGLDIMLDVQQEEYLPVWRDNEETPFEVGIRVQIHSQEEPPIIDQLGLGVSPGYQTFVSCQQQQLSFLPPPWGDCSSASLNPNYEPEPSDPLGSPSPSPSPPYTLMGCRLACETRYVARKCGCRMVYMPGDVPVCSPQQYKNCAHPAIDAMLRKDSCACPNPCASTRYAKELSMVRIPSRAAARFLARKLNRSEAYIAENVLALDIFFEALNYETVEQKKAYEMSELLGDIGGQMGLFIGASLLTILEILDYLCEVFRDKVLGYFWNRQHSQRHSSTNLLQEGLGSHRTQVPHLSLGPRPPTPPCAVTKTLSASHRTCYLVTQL

N=C(N)NC(=O)c1nc(Cl)c(N)nc1N [amiloride]
block of the pH5.5-induced fast increase in conductance [1]: 40+/−13% | decrease of sustained current [2]: sustained current by ˜30%; fast
